Read-outs that look alike come from different tables or passages of the source.
Legend:
[1] = target: GDP-bound KRAS protein (aa 1-169), containing both G12D and C118A amino acid substitutions (Homo sapiens, UniProt P01116, C118A/G12D); test: KRAS G12D Coupled Nucleotide Exchange Assay; type: biochemical; details: 2 h compound pre-incubation
Description: Following compound pre-incubation, purified SOS protein (aa 564-1049) and GTP (Roche 10106399001) were added to the assay wells and incubated for an additional 30 min. […] The assay plates were then read on a PerkinElmer EnVision Multilabel Reader, using AlphaScreen® technology, and data were analyzed using a 4-parameter logistic model to calculate IC50 values.

[2] = tested on: Phosphorylation of ERK1/2 in AsPC-1 cells; test: Phospho-ERK1/2 MSD Assay (AsPC-1 cells); type: cell-based; details: 2 hours treatment, read-out: p-ERK (AsPC-1 cells) IC50
Summary of the method: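 Read-out: MSD electrochemiluminescent detection of phosphorylated ERK1/2 in whole-cell lysates, fitted to a 4-parameter logistic curve for IC50. Prior to lysis, AsPC-1 cells (25,000 per well) received a 2 h compound dose-response at 37 °C.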

[3] = tested on: Phosphorylation of ERK1/2 in A-427 cells; test: Phospho-ERK1/2 MSD Assay (A-427 cells); type: cell-based; details: 2 h treatment, read-out: p-ERK (A427 cells) IC50
Summary of the method: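 ERK1/2 phosphorylation measured by Meso Scale whole-cell lysate assay after A-427 cells were exposed to a titration of compound for 2 h at 37 °C.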

[4] = target: His-tagged KRAS G12D protein (Homo sapiens, UniProt P01116, G12D); test: KRAS G12D TR-FRET Assay; type: binding
Sequence of His-tagged KRAS G12D protein (P01116 1-188 isoform P01116-2 G12D): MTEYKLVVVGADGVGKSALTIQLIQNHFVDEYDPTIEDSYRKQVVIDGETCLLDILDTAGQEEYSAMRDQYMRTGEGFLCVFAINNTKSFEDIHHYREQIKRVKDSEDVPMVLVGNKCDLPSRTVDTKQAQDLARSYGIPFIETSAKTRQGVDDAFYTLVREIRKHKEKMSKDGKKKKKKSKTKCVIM

Sequence of GDP-bound KRAS protein (aa 1-169), containing both G12D and C118A amino acid substitutions (P01116 1-169 isoform P01116-2 G12D/C118A): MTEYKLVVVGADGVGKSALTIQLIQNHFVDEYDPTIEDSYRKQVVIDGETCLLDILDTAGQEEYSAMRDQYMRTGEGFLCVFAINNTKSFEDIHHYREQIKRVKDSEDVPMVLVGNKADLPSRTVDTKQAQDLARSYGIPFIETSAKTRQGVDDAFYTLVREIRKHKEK

Structure (SMILES)	Avg 2 h Coupled Exchange IC50 [1]	IC50 ([2]; Homo sapiens, ASPC1, 2 h)	IC50 ([3]; Homo sapiens, A-427, 2 h)	IC50 [4]	IC50 [2]	IC50 [3]
Cc1cc2[nH]ncc2c(-c2ccc3c(N4[C@@H]5CC[C@H]4CNC5)nc(OC[C@@]45CCCN4C[C@H](F)C5)nc3c2)c1Cl [Example 37, 4-((1R,5S)-3,8-diazabicyclo[3.2. 1]octan-8-yl)-7-(5-chloro-6-methyl-1H-indazol-4-yl)-2-(((2R,7aS)-2-fluorotetrahydro-1H-pyrrolizin-7a(5H)-yl)methoxy) quinazoline]	73 nM	6700 nM	> 10000 nM	193 nM	–	–
Fc1c(-c2ccc(Cl)c3ccccc23)c(Cl)cc2c(N3C[C@H]4CC[C@@H](C3)N4)nc(OC[C@@]34CCCN3C[C@H](F)C4)nc12 [Example 79, 4-((1R,5S)-3,8-diazabicyclo[3.2. 1]octan-3-yl)-6-chloro-7-(4-chloronaphthalen-1-yl)-8-fluoro-2-(((2R,7aS)-2-fluorotetrahydro-1H-pyrrolizin-7a(5H)-yl)methoxy) quinazoline]	26 nM	3430 nM	> 10000 nM	26 nM	–	–
CCc1c(F)ccc2cc(O)cc(-c3c(F)cc4c(N5C6CCC5C(=O)NC6)nc(OC[C@@]56CCCN5C[C@H](F)C6)nc4c3F)c12 (single isomer, unassigned) [Example 176]	7 nM	–	–	11 nM	2650 nM	545 nM
Cc1c(-c2cc(O)cc3ccccc23)ccc2c(N3[C@@H]4CC[C@H]3CNC4)nc(OC[C@@]34CCCN3C[C@H](F)C4)nc12 [Example 34, 4-(4-((1R,5S)-3,8-diazabicyclo[3.2. 1]octan-8-yl)-2-(((2R,7aS)-2-fluorotetrahydro-1H-pyrrolizin-7a(5H)-yl)methoxy)-8-methylquinazolin-7-yl)naphthalen-2-ol]	22 nM	2980 nM	2570 nM	47 nM	–	–
CCc1c(F)ccc2cc(O)cc(-c3ccc4c(N5C[C@@H]6CC[C@H]5CN6)nc(OC[C@@]56CCCN5C[C@H](F)C6)nc4c3F)c12 [Example 139, 4-(4-((1S,4S)-2,5-diazabicyclo[2.2.2]octan-2-yl)-8-fluoro-2-(((2R,7aS)-2-fluorotetrahydro-1H-pyrrolizin-7a(5H)-yl)methoxy)quinazolin-7-yl)-5-ethyl-6-fluoronaphthalen-2-ol]	4 nM	44 nM	8 nM	5 nM	–	–
Oc1cc(-c2c(Cl)cc3c(N4C[C@H]5CC[C@@H](C4)N5)nc(OC[C@@]45CCCN4C[C@H](F)C5)nc3c2F)c2c(F)c(F)ccc2c1 [Example 81, 4-(4-((1R,5S)-3,8-diazabicyclo[3.2. 1]octan-3-yl)-6-chloro-8-fluoro-2-(((2R,7aS)-2-fluorotetrahydro-1H-pyrrolizin-7a(5H)-yl)methoxy)quinazolin-7-yl)-5,6-difluoronaphthalen-2-ol]	4 nM	99 nM	30 nM	3 nM	–	–
Oc1cc(-c2cc3nc(OC[C@@]45CCCN4C[C@H](F)C5)nc(N4C[C@H]5CC[C@@H](C4)N5)c3cc2F)c2c(Cl)cccc2c1 [Example 85, 4-(4-((1R,5S)-3,8-diazabicyclo[3.2. 1]octan-3-yl)-6-fluoro-2-(((2R,7aS)-2-fluorotetrahydro-1H-pyrrolizin-7a(5H)-yl)methoxy)quinazolin-7-yl)-5-chloronaphthalen-2-ol]	1 nM	273 nM	64 nM	4 nM	–	–
N#Cc1cc2c(N3C[C@H]4CC[C@@H](C3)N4)nc(OC[C@@]34CCCN3C[C@H](F)C4)nc2c(F)c1-c1cc(O)cc2ccccc12 [Example 219, 4-((1R,5S)-3,8-Diazabicyclo[3.2.1]octan-3-yl)-8-fluoro-2-(((2R,7aS)-2-fluorotetrahydro-1H-pyrrolizin-7a(5H)-yl)methoxy)-7-(3-hydroxynaphthalen-1-yl)quinazoline-6-carbonitrile]	2 nM	531 nM	92 nM	1 nM	–	–
Oc1ccc(-c2c(F)cc3c(N4C[C@H]5CC[C@@H](C4)N5)nc(OC[C@@]45CCCN4C[C@H](F)C5)nc3c2F)c2ccccc12 [Example 122, 4-(4-((1R,5S)-3,8-diazabicyclo[3.2.1]octan-3-yl)-6,8-difluoro-2-(((2R,7aS)-2-fluorotetrahydro-1H-pyrrolizin-7a(5H)-yl)methoxy)quinazolin-7-yl)naphthalen-1-ol]	5 nM	282 nM	167 nM	5 nM	–	–
Cc1c(Cl)cc2[nH]ncc2c1-c1c(Cl)cc2c(N3C[C@H]4CC[C@@H](C3)N4)nc(OC[C@@]34CCCN3C[C@H](F)C4)nc2c1F [Example 73, 4-((1R,5S)-3,8-diazabicyclo[3.2. 1]octan-3-yl)-6-chloro-7-(6-chloro-5-methyl-1H-indazol-4-yl)-8-fluoro-2-(((2R,7aS)-2-fluorotetrahydro-1H-pyrrolizin-7a(5H)-yl)methoxy) quinazoline]	17 nM	715 nM	422 nM	15 nM	–	–
CCc1c(F)ccc2cc(O)cc(-c3c(Cl)cc4c(N5C[C@@H]6CC[C@H]5CN6)nc(OC[C@@]56CCCN5C[C@H](F)C6)nc4c3F)c12 [Example 129, 4-(4-((1S,4S)-2,5-diazabicyclo[2.2.2]octan-2-yl)-6-chloro-8-fluoro-2-(((2R,7aS)-2-fluorotetrahydro-1H-pyrrolizin-7a(5H)-yl)methoxy)quinazolin-7-yl)-5-ethyl-6-fluoronaphthalen-2-ol]	5 nM	83 nM	29 nM	4 nM	–	–
Oc1cc(-c2cc3nc(OC[C@@]45CCCN4C[C@H](F)C5)nc(N4[C@@H]5CC[C@H]4CNC5)c3cc2F)c2ccccc2c1 [Example 53, 4-(4-((1R,5S)-3,8-diazabicyclo[3.2. 1]octan-8-yl)-6-fluoro-2-(((2R,7aS)-2-fluorotetrahydro-1H-pyrrolizin-7a(5H)-yl)methoxy)quinazolin-7-yl)naphthalen-2-ol]	3 nM	919 nM	608 nM	16 nM	–	–
CCc1c(F)ccc2cc(O)cc(-c3c(F)cc4c(N5C[C@H]6CC[C@@H](C5)N6)nc(OCC(C)(O)CC)nc4c3F)c12 (stereo partly drawn) [Example 214, 4-(4-((1R,5S)-3,8-diazabicyclo[3.2.1]octan-3-yl)-6,8-difluoro-2-(2-hydroxy-2-methylbutoxy)quinazolin-7-yl)-5-ethyl-6-fluoronaphthalen-2-ol]	5 nM	1210 nM	1700 nM	13 nM	–	–
CCc1c(F)ccc2cc(O)cc(-c3c(F)cc4c(N5C[C@H]6CC[C@@H](C5)N6)nc(/C=C/C(C)(C)O)nc4c3F)c12 [Example 218, 4-(4-((1R,5S)-3,8-Diazabicyclo[3.2.1]octan-3-yl)-6,8-difluoro-2-((E)-3-hydroxy-3-methylbut-1-en-1-yl)quinazolin-7-yl)-S-ethyl-6-fluoronaphthalen-2-ol]	6 nM	1140 nM	1460 nM	6 nM	–	–
CCc1c(F)ccc2cccc(-c3ccc4c(N5C[C@H]6CC[C@@H](C5)N6)nc(OC[C@@]56CCCN5C[C@H](F)C6)nc4c3C)c12 [Example 58, 4-((1R,5S)-3,8-diazabicyclo[3.2. 1]octan-3-yl)-7-(8-ethyl-7-fluoronaphthalen-1-yl)-2-(((2R,7aS)-2-fluorotetrahydro-1H-pyrrolizin-7a(5H)-yl)methoxy)-8-methylquinazolin]	5 nM	2460 nM	4190 nM	6 nM	–	–
CCc1c(F)ccc2cc(O)cc(-c3c(F)cc4c(N5CCC6CCC(C5)N6)nc(OC[C@@]56CCCN5C[C@H](F)C6)nc4c3F)c12 (stereo partly drawn) [Example 153, 4-(4-(3,9-diazabicyclo[4.2.1]nonan-3-yl)-6,8-difluoro-2-(((2R,7aS)-2-fluorotetrahydro-1H-pyrrolizin-7a(5H)-yl)methoxy)quinazolin-7-yl)-5-ethyl-6-fluoronaphthalen-2-ol]	3 nM	419 nM	349 nM	6 nM	–	–
CCc1c(F)ccc2cccc(-c3c(F)cc4c(N5C[C@H]6CC[C@@H](C5)N6)nc(OC[C@@]56CCCN5C[C@H](F)C6)nc4c3F)c12 [Example 69, 4-((1R,5S)-3,8-diazabicyclo[3.2. 1]octan-3-yl)-7-(8-ethyl-7-fluoronaphthalen-1-yl)-6,8-difluoro-2-(((2R,7aS)-2-fluorotetrahydro-1H-pyrrolizin-7a(5H)-yl)methoxy) quinazoline]	2 nM	514 nM	1000 nM	4 nM	–	–
Oc1cc(-c2ccc3c(N4[C@@H]5CC[C@H]4CNC5)nc(OC[C@]45CCCN4C[C@H](F)C5)nc3c2F)c2ccccc2c1 [Example 3, 4-(4-((1R,5S)-3,8-diazabicyclo[3.2. 1]octan-8-yl)-8-fluoro-2-(((2R,7aR)-2-fluorotetrahydro-1H-pyrrolizin-7a(5H)-yl)methoxy)quinazolin-7-yl)naphthalen-2-ol]	5 nM	812 nM	650 nM	10 nM	–	–

From patent US20250059205A1, “Heterocyclic Compounds and Methods of Use” (AMGEN INC., priority 2021, published 2025)
